# Experimental data reported in patent US20240398828A1, “HETERO-ATOM CONTAINING COMPOUNDS AND USES THEREOF” (Kumquat Biosciences Inc., priority 2021, published 2024).
# Key:
# PTPN2 (i.e., TC-PTP) = biological target: T1, PTPN2 (i.e., TC-PTP) (Homo sapiens, UniProt P17706); test: Phosphatase activity assay (DiFMUP substrate), PTPN2; assay type: biochemical; settings: compounds binned ≤1 uM or >1 uM
# T1 sequence (P17706 1-415): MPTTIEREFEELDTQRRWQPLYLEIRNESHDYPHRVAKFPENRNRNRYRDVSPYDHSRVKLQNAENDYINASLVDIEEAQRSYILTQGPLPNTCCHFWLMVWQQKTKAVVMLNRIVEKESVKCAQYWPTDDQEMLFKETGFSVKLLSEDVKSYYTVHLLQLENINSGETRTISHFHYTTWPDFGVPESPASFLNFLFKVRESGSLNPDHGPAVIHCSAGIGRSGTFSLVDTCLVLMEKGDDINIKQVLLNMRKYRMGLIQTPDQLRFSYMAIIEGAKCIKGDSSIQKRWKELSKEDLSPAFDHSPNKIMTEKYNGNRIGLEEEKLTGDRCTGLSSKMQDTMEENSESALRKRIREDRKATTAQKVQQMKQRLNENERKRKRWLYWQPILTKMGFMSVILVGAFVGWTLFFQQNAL
# In short: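 First, serially diluted inhibitor is mixed about 2 minutes with enzyme in pH 7.5 HEPES/NaCl/EDTA/DTT/Tween-20 buffer. Next, DiFMUP is added at the enzyme's Km, approximately 45 μM for PTPN2. Finally, DiFMU appearance is read continuously at room temperature and rates are fitted for IC50.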
# PTPN1 (i.e., PTP1B) = biological target: T2, PTPN1 (i.e., PTP1B) (Homo sapiens, UniProt P18031); test: Phosphatase activity assay (DiFMUP substrate), PTP1B; assay type: biochemical; settings: compounds binned ≤1 uM or >1 uM
# T2 sequence (P18031 1-435): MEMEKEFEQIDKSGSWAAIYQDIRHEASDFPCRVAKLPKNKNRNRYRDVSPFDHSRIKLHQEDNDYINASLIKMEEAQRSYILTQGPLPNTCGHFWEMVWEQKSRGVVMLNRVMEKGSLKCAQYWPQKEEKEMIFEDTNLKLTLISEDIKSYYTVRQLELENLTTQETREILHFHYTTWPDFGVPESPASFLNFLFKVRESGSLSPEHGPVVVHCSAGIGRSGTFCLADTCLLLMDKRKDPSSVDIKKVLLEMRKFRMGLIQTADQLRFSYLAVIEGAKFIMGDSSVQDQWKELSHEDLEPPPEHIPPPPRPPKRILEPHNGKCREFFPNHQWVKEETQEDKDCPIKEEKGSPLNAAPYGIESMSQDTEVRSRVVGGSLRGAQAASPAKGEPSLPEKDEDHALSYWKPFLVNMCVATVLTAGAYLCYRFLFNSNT
# In short: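 Enzyme (e.g. PTPN2 0.025 ng/ul) mixed about 2 min with compound at 10 serial concentrations in 50 mM HEPES pH 7.5, 150 mM NaCl, 0.5 mM EDTA, 1 mM DTT, 0.001% Tween-20 at room temperature. DiFMUP added at each enzyme's Km (about 45 μM for PTPN2). DiFMU fluorescence (ex 360/em 450 nm) followed 15-30 min; IC50 from 4-parameter fit of rates.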
SMILES,"IC50 (PTPN2 (i.e., TC-PTP)) [nM]","IC50 (PTPN1 (i.e., PTP1B)) [nM]"
"O=C1CN(c2c(O)ccc(-c3cnn(C4CCCC4)c3)c2F)S(=O)(=O)N1 [Compound 123, 5-(3-(1-cyclopentyl-1H-pyrazol-4-yl)-2-fluoro-6-hydroxyphenyl)-1,2,5-thiadiazolidin-3-one 1,1-dioxide]",≤ 1000,≤ 1000
"Cc1ncc(-c2ccc(O)c(N3CC(=O)NS3(=O)=O)c2F)o1 [Compound 101, 5-(2-fluoro-6-hydroxy-3-(2-methyloxazol-5-yl)phenyl)-1,2,5-thiadiazolidin-3-one 1,1-dioxide]",≤ 1000,≤ 1000
"O=C1CN(c2c(O)ccc(-c3cc(C4CCCC4)n[nH]3)c2F)S(=O)(=O)N1 [Compound 266, 5-(3-(3-cyclopentyl-1H-pyrazol-5-yl)-2-fluoro-6-hydroxyphenyl)-1,2,5-thiadiazolidin-3-one 1,1-dioxide]",≤ 1000,≤ 1000
"Cc1n[nH]c(C)c1-c1ccc(O)c(N2CC(=O)NS2(=O)=O)c1F [Compound 164, 5-(3-(3,5-dimethyl-1H-pyrazol-4-yl)-2-fluoro-6-hydroxyphenyl)-1,2,5-thiadiazolidin-3-one 1,1-dioxide]",> 1000,> 1000
"CC(C)CCN1CCCC(c2ccc(O)c(N3CC(=O)NS3(=O)=O)c2F)C1 (stereo not drawn) [Compound 198, 5-(2-fluoro-6-hydroxy-3-(1-isopentylpiperidin-3-yl)phenyl)-1,2,5-thiadiazolidin-3-one 1,1-dioxide]",> 1000,≤ 1000
"Cc1ncc(-c2ccc(O)c(N3CC(=O)NS3(=O)=O)c2F)cn1 [Compound 139, 5-(2-fluoro-6-hydroxy-3-(2-methylpyrimidin-5-yl)phenyl)-1,2,5-thiadiazolidin-3-one 1,1-dioxide]",≤ 1000,≤ 1000
"CC1C=C(c2ccc(O)c(N3CC(=O)NS3(=O)=O)c2F)CN1 (stereo not drawn) [Compound 282, 5-(2-fluoro-6-hydroxy-3-(5-methyl-2,5-dihydro-1H-pyrrol-3-yl)phenyl)-1,2,5-thiadiazolidin-3-one 1,1-dioxide]",≤ 1000,≤ 1000
"N#Cc1cccc(Cn2cc(-c3ccc(O)c(N4CC(=O)NS4(=O)=O)c3F)cn2)c1 [Compound 161, 3-((4-(3-(1,1-dioxido-4-oxo-1,2,5-thiadiazolidin-2-yl)-2-fluoro-4-hydroxyphenyl)-1H-pyrazol-1-yl)methyl)benzonitrile]",≤ 1000,≤ 1000
"Cc1c(C2CC2)n[nH]c1-c1ccc(O)c(N2CC(=O)NS2(=O)=O)c1F [Compound 254, 5-(3-(3-cyclopropyl-4-methyl-1H-pyrazol-5-yl)-2-fluoro-6-hydroxyphenyl)-1,2,5-thiadiazolidin-3-one 1,1-dioxide]",≤ 1000,≤ 1000
"COc1cc(-c2ccc(O)c(N3CC(=O)NS3(=O)=O)c2F)c(F)cn1 [Compound 206, 5-(2-fluoro-3-(5-fluoro-2-methoxypyridin-4-yl)-6-hydroxyphenyl)-1,2,5-thiadiazolidin-3-one 1,1-dioxide]",≤ 1000,≤ 1000
"O=C1CN(c2c(O)ccc(-c3cnn(CCC4CCOC4)c3)c2F)S(=O)(=O)N1 (stereo not drawn) [Compound 228, 5-(2-fluoro-6-hydroxy-3-(1-(2-(tetrahydrofuran-3-yl)ethyl)-1H-pyrazol-4-yl)phenyl)-1,2,5-thiadiazolidin-3-one 1,1-dioxide]",≤ 1000,≤ 1000
"O=C1CN(c2c(O)ccc(-c3cnn(C4CCOCC4)c3)c2F)S(=O)(=O)N1 [Compound 214, 5-(2-fluoro-6-hydroxy-3-(1-(tetrahydro-2H-pyran-4-yl)-1H-pyrazol-4-yl)phenyl)-1,2,5-thiadiazolidin-3-one 1,1-dioxide]",≤ 1000,≤ 1000
"O=C1CN(c2c(O)ccc(-c3cnn(Cc4ccccc4)c3)c2F)S(=O)(=O)N1 [Compound 212, 5-(3-(1-benzyl-1H-pyrazol-4-yl)-2-fluoro-6-hydroxyphenyl)-1,2,5-thiadiazolidin-3-one 1,1-dioxide]",≤ 1000,≤ 1000

# Further lines, results first:
"IC50 (PTPN2 (i.e., TC-PTP)) [nM]","IC50 (PTPN1 (i.e., PTP1B)) [nM]",SMILES
≤ 1000,≤ 1000,"O=C1CN(c2c(O)ccc(-c3cnn(C(=O)C4CC4)c3)c2F)S(=O)(=O)N1 [Compound 537, 5-(3-(1-(cyclopropanecarbonyl)-1H-pyrazol-4-yl)-2-fluoro-6-hydroxyphenyl)-1,2,5-thiadiazolidin-3-one 1,1-dioxide]"
≤ 1000,≤ 1000,"O=C1CN(c2c(O)ccc(-c3cn(C(F)F)nc3F)c2F)S(=O)(=O)N1 [Compound 509, 5-(3-(1-(difluoromethyl)-3-fluoro-1H-pyrazol-4-yl)-2-fluoro-6-hydroxyphenyl)-1,2,5-thiadiazolidin-3-one 1,1-dioxide]"
≤ 1000,≤ 1000,"COc1cc(-c2ccc(O)c(N3CC(=O)NS3(=O)=O)c2F)[nH]n1 [Compound 428, 5-(2-fluoro-6-hydroxy-3-(3-methoxy-1H-pyrazol-5-yl)phenyl)-1,2,5-thiadiazolidin-3-one 1,1-dioxide]"
≤ 1000,≤ 1000,"O=C1CN(c2c(O)ccc(-c3cc(C4CC4(F)F)nn3CC(F)F)c2F)S(=O)(=O)N1 (stereo not drawn) [Compound 491, 5-(3-(3-(2,2-difluorocyclopropyl)-1-(2,2-difluoroethyl)-1H-pyrazol-5-yl)-2-fluoro-6-hydroxyphenyl)-1,2,5-thiadiazolidin-3-one 1,1-dioxide]"
≤ 1000,≤ 1000,"O=C1CN(c2c(O)ccc(C3CCN(C4CC4)CC3)c2F)S(=O)(=O)N1 [Compound 353, 5-(3-(1-cyclopropylpiperidin-4-yl)-2-fluoro-6-hydroxyphenyl)-1,2,5-thiadiazolidin-3-one 1,1-dioxide]"
≤ 1000,≤ 1000,"O=C1CN(c2c(O)ccc(-c3cnn(CC(F)F)c3)c2F)S(=O)(=O)N1 [Compound 525, 5-(3-(1-(2,2-difluoroethyl)-1H-pyrazol-4-yl)-2-fluoro-6-hydroxyphenyl)-1,2,5-thiadiazolidin-3-one 1,1-dioxide]"
≤ 1000,≤ 1000,"CS(=O)(=O)n1nc(-c2ccc(O)c(N3CC(=O)NS3(=O)=O)c2F)cc1C1CC1 [Compound 498, 5-(3-(5-cyclopropyl-1-(methylsulfonyl)-1H-pyrazol-3-yl)-2-fluoro-6-hydroxyphenyl)-1,2,5-thiadiazolidin-3-one 1,1-dioxide]"
≤ 1000,≤ 1000,"N#CCc1cc(-c2ccc(O)c(N3CC(=O)NS3(=O)=O)c2F)[nH]n1 [Compound 365, 2-(5-(3-(1,1-dioxido-4-oxo-1,2,5-thiadiazolidin-2-yl)-2-fluoro-4-hydroxyphenyl)-1H-pyrazol-3-yl)acetonitrile]"
≤ 1000,≤ 1000,"O=C1CN(c2c(O)ccc(-c3cc(N4CCCCC4)n[nH]3)c2F)S(=O)(=O)N1 [Compound 332, 5-(2-fluoro-6-hydroxy-3-(3-(piperidin-1-yl)-1H-pyrazol-5-yl)phenyl)-1,2,5-thiadiazolidin-3-one 1,1-dioxide]"
≤ 1000,≤ 1000,"O=C1CN(c2c(O)ccc(C3=CCOCC3)c2F)S(=O)(=O)N1 [Compound 405, 5-(3-(3,6-dihydro-2H-pyran-4-yl)-2-fluoro-6-hydroxyphenyl)-1,2,5-thiadiazolidin-3-one 1,1-dioxide]"
≤ 1000,≤ 1000,"O=C1CN(c2c(O)ccc(-c3cc(N4CC5(CCC5)C4)n[nH]3)c2F)S(=O)(=O)N1 [Compound 323, 5-(3-(3-(2-azaspiro[3.3]heptan-2-yl)-1H-pyrazol-5-yl)-2-fluoro-6-hydroxyphenyl)-1,2,5-thiadiazolidin-3-one 1,1-dioxide]"
≤ 1000,≤ 1000,"N#CNC(=N)N1CC=C(c2ccc(O)c(N3CC(=O)NS3(=O)=O)c2F)C1 [Compound 476, N-cyano-3-(3-(1,1-dioxido-4-oxo-1,2,5-thiadiazolidin-2-yl)-2-fluoro-4-hydroxyphenyl)-2,5-dihydro-1H-pyrrole-1-carboximidamide]"
≤ 1000,≤ 1000,"O=C1CN(c2c(O)ccc(-c3cn(-c4cccc(C(F)(F)F)c4)cn3)c2F)S(=O)(=O)N1 [Compound 325, 5-(2-fluoro-6-hydroxy-3-(1-(3-(trifluoromethyl)phenyl)-1H-imidazol-4-yl)phenyl)-1,2,5-thiadiazolidin-3-one 1,1-dioxide]"
≤ 1000,≤ 1000,"O=C1CN(c2c(O)ccc(-c3cc(C4=CCOCC4)n[nH]3)c2F)S(=O)(=O)N1 [Compound 402, 5-(3-(3-(3,6-dihydro-2H-pyran-4-yl)-1H-pyrazol-5-yl)-2-fluoro-6-hydroxyphenyl)-1,2,5-thiadiazolidin-3-one 1,1-dioxide]"
